Test results as given in PubChem BioAssay (NCI).
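GI50: concentration for 50% inhibition of growth. TGI: concentration producing complete growth inhibition.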

Assays:
Test in all cases: NCI tumour cell line growth inhibition, 384-well format
SF-539 CNS = tested on: SF-539 CNS
SK-MEL-28 melanoma = tested on: SK-MEL-28 melanoma
MCF7 breast = tested on: MCF7 breast
CAKI-1 renal = tested on: CAKI-1 renal
SK-MEL-2 melanoma = tested on: SK-MEL-2 melanoma
MDA-MB-468 breast = tested on: MDA-MB-468 breast
K-562 leukemia = tested on: K-562 leukemia
OVCAR-3 ovarian = tested on: OVCAR-3 ovarian
HOP-92 NSCLC = tested on: HOP-92 NSCLC
PC-3 prostate = tested on: PC-3 prostate
KM12 colon = tested on: KM12 colon
EKVX NSCLC = tested on: EKVX NSCLC
ACHN renal = tested on: ACHN renal
UO-31 renal = tested on: UO-31 renal
RXF 393 renal = tested on: RXF 393 renal
SW-620 colon = tested on: SW-620 colon
NCI-H226 lung = tested on: NCI-H226 lung
CCRF-CEM leukemia = tested on: CCRF-CEM leukemia
DU-145 prostate = tested on: DU-145 prostate
UACC-62 melanoma = tested on: UACC-62 melanoma
OVCAR-5 ovarian = tested on: OVCAR-5 ovarian
HCT-116 colon = tested on: HCT-116 colon
M14 melanoma = tested on: M14 melanoma
MDA-MB-435 melanoma = tested on: MDA-MB-435 melanoma
MALME-3M melanoma = tested on: MALME-3M melanoma
HOP-62 NSCLC = tested on: HOP-62 NSCLC
SK-OV-3 ovarian = tested on: SK-OV-3 ovarian
HCC-2998 colon = tested on: HCC-2998 colon
NCI-H23 lung = tested on: NCI-H23 lung
TK-10 renal = tested on: TK-10 renal
OVCAR-4 ovarian = tested on: OVCAR-4 ovarian
SK-MEL-5 melanoma = tested on: SK-MEL-5 melanoma
NCI/ADR-RES ovarian = tested on: NCI/ADR-RES ovarian
COLO 205 colon = tested on: COLO 205 colon
SF-268 CNS = tested on: SF-268 CNS
HCT-15 colon = tested on: HCT-15 colon
HS 578T breast = tested on: HS 578T breast
RPMI-8226 leukemia = tested on: RPMI-8226 leukemia
A549 NSCLC = tested on: A549 NSCLC
UACC-257 melanoma = tested on: UACC-257 melanoma
SF-295 CNS = tested on: SF-295 CNS
OVCAR-8 ovarian = tested on: OVCAR-8 ovarian
SNB-75 CNS = tested on: SNB-75 CNS
786-0 renal = tested on: 786-0 renal
NCI-H460 NSCLC = tested on: NCI-H460 NSCLC
MDA-MB-231 breast = tested on: MDA-MB-231 breast
HL-60(TB) leukemia = tested on: HL-60(TB) leukemia

Question: How did the GI50 (SF-539 CNS) turn out when `Cc1cc([C@H](C)Nc2nccc(N3C(=O)OC[C@@H]3[C@H](C)F)n2)ncc1-c1ccnc(C(F)(F)F)c1` was run?
Answer: 96.3 µM

Question: What about the TGI (SF-539 CNS) of the same compound?
Answer: > 100 µM

Question: And the GI50 (SK-MEL-28 melanoma)?
Answer: > 100 µM

Question: And the TGI (SK-MEL-28 melanoma)?
Answer: > 100 µM

Question: And the GI50 (MCF7 breast)?
Answer: 25.8 µM

Question: And the TGI (MCF7 breast)?
Answer: > 100 µM

Question: And the GI50 (CAKI-1 renal)?
Answer: 34.4 µM

Question: And the TGI (CAKI-1 renal)?
Answer: > 100 µM

Question: What about the GI50 (SK-MEL-2 melanoma) of the same compound?
Answer: 82.9 µM

Question: And the TGI (SK-MEL-2 melanoma)?
Answer: > 100 µM

Question: And the GI50 (MDA-MB-468 breast)?
Answer: 4.43 µM

Question: And the TGI (MDA-MB-468 breast)?
Answer: 24.5 µM

Question: And the GI50 (K-562 leukemia)?
Answer: 8.88 µM

Question: And the TGI (K-562 leukemia)?
Answer: > 100 µM

Question: What about the GI50 (OVCAR-3 ovarian) of the same compound?
Answer: 22.2 µM

Question: What about the TGI (OVCAR-3 ovarian) of the same compound?
Answer: 72.3 µM

Question: What about the GI50 (HOP-92 NSCLC) of the same compound?
Answer: 29.2 µM

Question: What about the TGI (HOP-92 NSCLC) of the same compound?
Answer: > 100 µM

Question: What about the GI50 (PC-3 prostate) of the same compound?
Answer: 27.7 µM

Question: And the TGI (PC-3 prostate)?
Answer: > 100 µM

Question: And the GI50 (KM12 colon)?
Answer: 40.1 µM

Question: What about the TGI (KM12 colon) of the same compound?
Answer: > 100 µM

Question: What about the GI50 (EKVX NSCLC) of the same compound?
Answer: 11.2 µM

Question: And the TGI (EKVX NSCLC)?
Answer: 98.2 µM

Question: What about the GI50 (ACHN renal) of the same compound?
Answer: 40.2 µM

Question: What about the TGI (ACHN renal) of the same compound?
Answer: > 100 µM

Question: What about the GI50 (UO-31 renal) of the same compound?
Answer: 18.8 µM

Question: What about the TGI (UO-31 renal) of the same compound?
Answer: > 100 µM

Question: And the GI50 (RXF 393 renal)?
Answer: 15.7 µM

Question: And the TGI (RXF 393 renal)?
Answer: 76.5 µM

Question: And the GI50 (SW-620 colon)?
Answer: 61 µM

Question: What about the TGI (SW-620 colon) of the same compound?
Answer: > 100 µM

Question: What about the GI50 (NCI-H226 lung) of the same compound?
Answer: 25.3 µM

Question: And the TGI (NCI-H226 lung)?
Answer: > 100 µM

Question: And the GI50 (CCRF-CEM leukemia)?
Answer: 7.56 µM

Question: And the TGI (CCRF-CEM leukemia)?
Answer: 31.5 µM

Question: What about the GI50 (DU-145 prostate) of the same compound?
Answer: 41.7 µM

Question: And the TGI (DU-145 prostate)?
Answer: > 100 µM

Question: And the GI50 (UACC-62 melanoma)?
Answer: 52.2 µM

Question: And the TGI (UACC-62 melanoma)?
Answer: > 100 µM

Question: What about the GI50 (OVCAR-5 ovarian) of the same compound?
Answer: 53.9 µM

Question: And the TGI (OVCAR-5 ovarian)?
Answer: > 100 µM

Question: And the GI50 (HCT-116 colon)?
Answer: 21 µM

Question: And the TGI (HCT-116 colon)?
Answer: 96.7 µM

Question: And the GI50 (M14 melanoma)?
Answer: 86.2 µM

Question: What about the TGI (M14 melanoma) of the same compound?
Answer: > 100 µM

Question: What about the GI50 (MDA-MB-435 melanoma) of the same compound?
Answer: 52.7 µM

Question: What about the TGI (MDA-MB-435 melanoma) of the same compound?
Answer: > 100 µM

Question: What about the GI50 (MALME-3M melanoma) of the same compound?
Answer: 28.3 µM

Question: What about the TGI (MALME-3M melanoma) of the same compound?
Answer: > 100 µM

Question: And the GI50 (HOP-62 NSCLC)?
Answer: 54.5 µM

Question: And the TGI (HOP-62 NSCLC)?
Answer: > 100 µM

Question: What about the GI50 (SK-OV-3 ovarian) of the same compound?
Answer: 41.7 µM

Question: What about the TGI (SK-OV-3 ovarian) of the same compound?
Answer: > 100 µM

Question: And the GI50 (HCC-2998 colon)?
Answer: 24.6 µM

Question: And the TGI (HCC-2998 colon)?
Answer: > 100 µM

Question: What about the GI50 (NCI-H23 lung) of the same compound?
Answer: 8.03 µM

Question: What about the TGI (NCI-H23 lung) of the same compound?
Answer: > 100 µM

Question: And the GI50 (TK-10 renal)?
Answer: 27.8 µM

Question: What about the TGI (TK-10 renal) of the same compound?
Answer: > 100 µM

Question: And the GI50 (OVCAR-4 ovarian)?
Answer: 29.6 µM

Question: And the TGI (OVCAR-4 ovarian)?
Answer: > 100 µM

Question: And the GI50 (SK-MEL-5 melanoma)?
Answer: 10.2 µM

Question: What about the TGI (SK-MEL-5 melanoma) of the same compound?
Answer: 25.4 µM

Question: And the GI50 (NCI/ADR-RES ovarian)?
Answer: 16.2 µM

Question: What about the TGI (NCI/ADR-RES ovarian) of the same compound?
Answer: 94.4 µM

Question: And the GI50 (COLO 205 colon)?
Answer: 64.1 µM

Question: What about the TGI (COLO 205 colon) of the same compound?
Answer: > 100 µM

Question: What about the GI50 (SF-268 CNS) of the same compound?
Answer: 68.6 µM

Question: What about the TGI (SF-268 CNS) of the same compound?
Answer: > 100 µM

Question: And the GI50 (HCT-15 colon)?
Answer: 33.9 µM

Question: And the TGI (HCT-15 colon)?
Answer: > 100 µM

Question: And the GI50 (HS 578T breast)?
Answer: 16.1 µM

Question: What about the TGI (HS 578T breast) of the same compound?
Answer: > 100 µM

Question: And the GI50 (RPMI-8226 leukemia)?
Answer: 7.2 µM

Question: What about the TGI (RPMI-8226 leukemia) of the same compound?
Answer: 21.2 µM

Question: What about the GI50 (A549 NSCLC) of the same compound?
Answer: 41.1 µM

Question: And the TGI (A549 NSCLC)?
Answer: > 100 µM

Question: And the GI50 (UACC-257 melanoma)?
Answer: 16.6 µM

Question: And the TGI (UACC-257 melanoma)?
Answer: 51.1 µM

Question: What about the GI50 (SF-295 CNS) of the same compound?
Answer: 33.5 µM

Question: What about the TGI (SF-295 CNS) of the same compound?
Answer: > 100 µM

Question: And the GI50 (OVCAR-8 ovarian)?
Answer: 31.6 µM

Question: What about the TGI (OVCAR-8 ovarian) of the same compound?
Answer: > 100 µM

Question: What about the GI50 (SNB-75 CNS) of the same compound?
Answer: 29.7 µM

Question: And the TGI (SNB-75 CNS)?
Answer: > 100 µM

Question: And the GI50 ([…]-0 renal)?
Answer: 31.3 µM

Question: What about the TGI (786-0 renal) of the same compound?
Answer: > 100 µM

Question: What about the GI50 (NCI-H460 NSCLC) of the same compound?
Answer: 37.1 µM

Question: And the TGI (NCI-H460 NSCLC)?
Answer: > 100 µM

Question: What about the GI50 (MDA-MB-231 breast) of the same compound?
Answer: 46.4 µM

Question: And the TGI (MDA-MB-231 breast)?
Answer: > 100 µM

Question: And the GI50 (HL-60(TB) leukemia)?
Answer: 17.5 µM

Question: What about the TGI (HL-60(TB) leukemia) of the same compound?
Answer: 31.3 µM
